According to patent US10227347B2, “Purinyl-N-hydroxyl pyrimidine formamide derivative, preparation methods and uses thereof” (Guizhou Bailing Group Pharmaceutical CO., LTD., priority 2015, dated 2019):
Read-outs that look alike come from different tables or passages of the source.

Assays:
PI3Kα = target: T1, PI3Kα (Homo sapiens, UniProt P42336); experiment: PI3Kα activity inhibition (Kinase-Glo); type: biochemical; details: Table 1, graded; read-out: PI3Kα IC50
T1 construct: purchased Invitrogen PV4788
Method: Detecting the inhibition capability of the compound to PI3Kα and PI3Kδ activities with Kinase-Glo (purchased from Promege Company; Catalog No.: V3771). […] The reaction system also comprises substrates as PIP2 (4, 5-diphosphoinositide, purchased from Life Technologies Company) and ATP (triphosadenine, purchased from Sigma Company). The reaction buffer system comprises 50 mM HEPES (4-hydroxyethylpiperazine ethane sulfonic acid), 3 mM MgCl2, 1 mM EGTA (ethylene glycol bis(2-amino ethylether)quadrol), 100 mM NaCl, 0.03% CHAPS (3-[3-(cholamidopropyl)dimethylamino]-1-propanesulfonic acid), 2 mM DTT (dithiothreitol). The pH value of the reaction buffer is 7.5. […] Mixing the system evenly for incubation under ambient temperature (for 1 h in PI3Kα test and for 2 h in PI3Kδ test). After incubation, adding 10 μL Kinase-Glo which has been preheated to ambient temperature into each reaction well to terminate the reaction; shaking it in dark place for 15 min after it is mixed evenly, then measuring the fluorescence intensity with a microplate reader and analyzing the result data with the software GraphPad Prism.
(§1) Calculating the value of IC50 as per the formula: Y=background data+(top data−background data)/(1+10^((Log IC50−X)*rate of curve))
Where, Y refers to the inhibition ratio (%) and X refers to the compound concentration.

HDAC1 = target: T2, HDAC1 (Homo sapiens, UniProt Q13547); experiment: In vitro HDAC1 enzymatic activity inhibition (Lys-Ac-AMC substrate); type: biochemical
T2 construct: purchased BPS Bioscience
Method: Determining the inhibition capability to HDAC activity through the substrate method of fluorophore 4-amino-7-coumarin coupled Ac-peptide (Lys-Ac-AMC). HDAC1 protein is purchased from BPS Bioscience Company; the reaction buffer system is a modified tris(hydroxymethyl)aminomethane (TRIS) buffer (pH7.0). All small molecule compounds are prepared and dissolved by 100% DMSO (dimethyl sulfoxide). HDAC is prepared into the buffer as per certain concentration to be served as the enzyme solution; trypsin and the fluorophore 4-amino-7-coumarin coupled Ac-peptide substrate are prepared into the buffer as per certain concentration to be served as the substrate solution. Adding the compound into the reaction wells of the 384 well plate at the designed concentration, then adding 15 μL HDAC solution into the reaction wells (adding 15 μL blank buffer into the control well 0) for incubation under ambient temperature for 15 min; then adding 10 μL substrate solution to start reaction; during the reaction, the final concentration of HDAC1 protein is 6 nM, trypsin 0.05 μM and Ac-peptide 8 μM.
as §1
Where, Y refers to the inhibition ratio (%) and X refers to the compound concentration. […]
Analyzing the result data with the software GraphPad Prism and calculating the value of IC50 as per the formula: Y=background data+(top data−background data)/(1+10^((Log IC50−X)*rate of curve)). Where, Y refers to the inhibition ratio (%) and X refers to the compound concentration.

[1] = Table 1, graded, read-out: HDAC1 IC50
[2] = read-out: inhibition value IC50 to the activity of HDAC1

T2 sequence (Q13547 whole entry, species assumed): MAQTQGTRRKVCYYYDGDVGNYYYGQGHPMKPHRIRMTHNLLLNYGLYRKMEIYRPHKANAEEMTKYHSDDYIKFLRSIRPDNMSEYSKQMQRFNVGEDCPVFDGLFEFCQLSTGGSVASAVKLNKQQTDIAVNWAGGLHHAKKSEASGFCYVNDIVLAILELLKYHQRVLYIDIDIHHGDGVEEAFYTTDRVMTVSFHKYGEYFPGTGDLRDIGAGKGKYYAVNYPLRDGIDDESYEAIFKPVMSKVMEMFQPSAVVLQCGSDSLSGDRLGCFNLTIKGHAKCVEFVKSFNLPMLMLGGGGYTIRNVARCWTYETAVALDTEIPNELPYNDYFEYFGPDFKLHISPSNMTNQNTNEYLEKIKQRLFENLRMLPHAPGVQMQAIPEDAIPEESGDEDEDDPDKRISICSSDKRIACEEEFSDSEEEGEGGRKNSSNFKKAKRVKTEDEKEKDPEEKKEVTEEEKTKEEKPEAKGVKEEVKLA
T1 sequence (P42336 whole entry, species assumed): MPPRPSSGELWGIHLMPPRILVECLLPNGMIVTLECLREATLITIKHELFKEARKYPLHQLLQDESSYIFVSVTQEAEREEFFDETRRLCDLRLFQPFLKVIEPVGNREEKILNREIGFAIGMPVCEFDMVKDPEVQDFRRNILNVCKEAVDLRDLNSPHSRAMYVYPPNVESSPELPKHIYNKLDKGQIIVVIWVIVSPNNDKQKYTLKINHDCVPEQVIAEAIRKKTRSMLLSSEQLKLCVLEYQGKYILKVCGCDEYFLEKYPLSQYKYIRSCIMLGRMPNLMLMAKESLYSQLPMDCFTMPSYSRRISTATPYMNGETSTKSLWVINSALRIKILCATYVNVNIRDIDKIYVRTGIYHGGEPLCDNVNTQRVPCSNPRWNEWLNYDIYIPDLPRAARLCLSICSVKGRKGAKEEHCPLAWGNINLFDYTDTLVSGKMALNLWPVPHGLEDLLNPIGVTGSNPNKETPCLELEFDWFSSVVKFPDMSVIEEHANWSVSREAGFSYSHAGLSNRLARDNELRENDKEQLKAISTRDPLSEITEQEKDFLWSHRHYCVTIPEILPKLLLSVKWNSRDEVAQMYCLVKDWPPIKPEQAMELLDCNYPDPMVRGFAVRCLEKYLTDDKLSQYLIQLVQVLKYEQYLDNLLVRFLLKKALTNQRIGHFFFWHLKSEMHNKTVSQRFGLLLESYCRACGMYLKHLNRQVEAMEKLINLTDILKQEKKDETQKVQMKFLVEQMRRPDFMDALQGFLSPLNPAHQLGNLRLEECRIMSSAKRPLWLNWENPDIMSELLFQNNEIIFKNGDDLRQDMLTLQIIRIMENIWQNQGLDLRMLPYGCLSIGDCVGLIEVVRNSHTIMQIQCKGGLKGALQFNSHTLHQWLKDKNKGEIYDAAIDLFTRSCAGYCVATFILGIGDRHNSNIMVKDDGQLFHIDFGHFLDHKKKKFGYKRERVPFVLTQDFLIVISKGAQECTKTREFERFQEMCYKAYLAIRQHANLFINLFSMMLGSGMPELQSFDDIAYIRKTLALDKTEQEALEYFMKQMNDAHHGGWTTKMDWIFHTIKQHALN
T1 sequence (P27986 whole entry partner, species assumed): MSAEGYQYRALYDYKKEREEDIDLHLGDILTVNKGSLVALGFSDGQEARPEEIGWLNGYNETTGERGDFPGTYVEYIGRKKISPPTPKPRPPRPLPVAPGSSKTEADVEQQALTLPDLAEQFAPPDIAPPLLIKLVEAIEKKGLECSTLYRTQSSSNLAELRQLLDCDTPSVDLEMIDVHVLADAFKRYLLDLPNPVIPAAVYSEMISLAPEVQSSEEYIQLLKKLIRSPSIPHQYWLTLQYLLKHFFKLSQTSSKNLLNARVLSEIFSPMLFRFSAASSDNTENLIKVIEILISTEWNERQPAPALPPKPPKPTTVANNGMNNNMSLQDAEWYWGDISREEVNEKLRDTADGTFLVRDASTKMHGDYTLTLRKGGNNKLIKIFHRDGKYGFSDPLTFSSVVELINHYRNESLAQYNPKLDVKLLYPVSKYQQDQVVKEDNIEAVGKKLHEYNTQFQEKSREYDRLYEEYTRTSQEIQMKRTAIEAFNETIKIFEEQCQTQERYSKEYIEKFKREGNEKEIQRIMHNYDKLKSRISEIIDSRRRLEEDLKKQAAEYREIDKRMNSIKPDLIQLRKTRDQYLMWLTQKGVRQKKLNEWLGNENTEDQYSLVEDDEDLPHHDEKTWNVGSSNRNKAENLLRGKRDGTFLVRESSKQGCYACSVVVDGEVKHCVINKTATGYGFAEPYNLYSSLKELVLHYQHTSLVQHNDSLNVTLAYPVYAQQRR

Question: Which results are given for “2-(((2-(2-(3-(1-hydroxyethyl)2-phenyl)-9-methyl-6-morpholine-9H-purine-8-yl))methyl(methyl)amino)-N-hydroxyl pyrimidine-5-formamide [CLJ-39]”?
Answer: IC50 (PI3Kα): > 10 µM; IC50 (HDAC1; [1]): < 0.1 µM

Question: “2-(((2-(4-((2-hydroxycaproyl)sulfydryl)phenyl)-9-methyl-6-morpholine-9H-purine-8-yl))methyl(methyl)amino)-N-hydroxyl pyrimidine-5-formamide [CLJ-42]” was tested. Which IC50 (PI3Kα) did it give?
Answer: Its IC50 is over 10 µM.

Question: What about the IC50 (HDAC1; [1]) of the same molecule?
Answer: The IC50 was under 0.1 µM.

Question: With CN(Cc1nc2c(N3CCOCC3)nc(-c3ccco3)nc2n1C)c1ncc(C(=O)NO)cn1 [CLJ-26, 2-(((2-(2-furyl)-9-methyl-6-morpholine-9H-purine-8-yl))methyl(methyl)amino)-N-hydroxyl pyrimidine-5-formamide] as the molecule, how does the IC50 (PI3Kα) read?
Answer: Its IC50 is over 10 µM.

Question: And the IC50 (HDAC1; [1])?
Answer: Its IC50 is under 0.001 µM.

Question: And the IC50 (HDAC1; [2])?
Answer: The IC50 was under 0.001 µM.

Question: CN(Cc1nc2c(N3CCOCC3)nc(-c3ccc(O)cc3)nc2n1C)c1ncc(C(=O)NO)cn1 [CLJ-28, 2-(((2-(4-hydroxyphenyl)-9-methyl-6-morpholine-9H-purine-8-yl))methyl(methyl)amino)-N-hydroxyl pyrimidine-5-formamide] was tested. Which IC50 (PI3Kα) did it give?
Answer: Its IC50 is over 10 µM.

Question: And the IC50 (HDAC1; [1])?
Answer: Its IC50 is 0.1 to 1 µM.

Question: For CCCCn1c(CN(C)c2ncc(C(=O)NO)cn2)nc2c(N3CCOCC3)nc(-c3ccc(OC)cc3)nc21 [CLJ-33, N-hydroxy-2-(((2-(4-methoxyphenyl)-6-morpholino-9-butyl-9H-purine-8-yl)methyl)(methyl)amino)pyrimidine-5-formamide], which IC50 (PI3Kα) is on record?
Answer: Its IC50 is over 10 µM.

Question: What about the IC50 (HDAC1; [1]) of the same molecule?
Answer: The IC50 was 0.1 to 1 µM.

Question: COc1ccc(-c2nc(N3CCOCC3)c3nc(CNc4ncc(C(=O)NO)cn4)n(C)c3n2)cc1 [CLJ-34, N-hydroxy-2-(((2-(4-methoxyphenyl)-9-methyl-6-morpholine-9H-purine-8-yl)methyl)amino)pyrimidine-5-formamide] was tested. Which IC50 (PI3Kα) did it give?
Answer: The IC50 was over 10 µM.

Question: And the IC50 (HDAC1; [1])?
Answer: The IC50 was under 0.1 µM.

Question: How did the IC50 (PI3Kα) turn out when CN(Cc1nc2c(N3CCOCC3)nc(-c3ccc4c(c3)OCCO4)nc2n1C)c1ncc(C(=O)NO)cn1 [CLJ-37, 2-(((2-(benzo[d][1.4]dioxyheterocyclic hexylene-6-yl)-9-methyl-6-morpholine-9H-purine-8-yl))methyl(methyl)amino)-N-hydroxyl pyrimidine-5-formamide] was run?
Answer: Its IC50 is over 10 µM.

Question: What about the IC50 (HDAC1; [1]) of the same molecule?
Answer: The IC50 was under 0.001 µM.

Question: What about the IC50 (HDAC1; [2]) of the same molecule?
Answer: The IC50 was under 0.001 µM.

Question: Which IC50 (PI3Kα) does the source give for CN(Cc1nc2c(N3CCOCC3)nc(-c3cccc(CO)c3)nc2n1C)c1ncc(C(=O)NO)cn1 [CLJ-40, 2-(((2-(3-(hydroxymethyl)phenyl)-9-methyl-6-morpholine-9H-purine-8-yl))methyl(methyl)amino)-N-hydroxyl pyrimidine-5-formamide] here?
Answer: The IC50 was over 10 µM.

Question: And the IC50 (HDAC1; [1])?
Answer: The IC50 was under 0.1 µM.

Question: Which IC50 (PI3Kα) does the source give for CN(Cc1nc2c(N3CCOCC3)nc(-c3cccc(OCCO)c3)nc2n1C)c1ncc(C(=O)NO)cn1 [CLJ-41, 2-(((2-(3-(2-hydroxylethyoxyl)phenyl)-9-methyl-6-morpholine-9H-purine-8-yl))methyl(methyl)amino)-N-hydroxyl pyrimidine-5-formamide] here?
Answer: The IC50 was 0.1 to 1 µM.

Question: What about the IC50 (HDAC1; [1]) of the same molecule?
Answer: The IC50 was 0.1 to 1 µM.

Question: CC(C)COc1ccc(-c2nc(N3CCOCC3)c3nc(CN(C)c4ncc(C(=O)NO)cn4)n(C)c3n2)cc1 [CLJ-43, 2-(((2-(4-isobutoxyphenyl)-9-methyl-6-morpholine-9H-purine-8-yl))methyl(methyl)amino)-N-hydroxyl pyrimidine-5-formamide] was tested. Which IC50 (PI3Kα) did it give?
Answer: Its IC50 is over 10 µM.

Question: What about the IC50 (HDAC1; [1]) of the same molecule?
Answer: Its IC50 is under 0.1 µM.

Question: For CCCn1c(CN(C)c2ncc(C(=O)NO)cn2)nc2c(N3CCOCC3)nc(-c3ccc(N)cc3)nc21 [CLJ-45, N-hydroxy-2-(((2-(4-aminophenyl)-6-morpholino-9-propyl-9H-purine-8-yl)methyl)(methyl)amino)pyrimidine-5-formamide], which IC50 (PI3Kα) is on record?
Answer: The IC50 was over 10 µM.

Question: What about the IC50 (HDAC1; [1]) of the same molecule?
Answer: The IC50 was 1 to 10 µM.

Question: How did the IC50 (PI3Kα) turn out when CN(C)c1ccc(-c2nc(N3CCOCC3)c3nc(CN(C)c4ncc(C(=O)NO)cn4)n(C)c3n2)cc1 [CLJ-46] was run?
Answer: Its IC50 is over 10 µM.

Question: What about the IC50 (HDAC1; [1]) of the same molecule?
Answer: Its IC50 is under 0.001 µM.

Question: What about the IC50 (HDAC1; [2]) of the same molecule?
Answer: The IC50 was under 0.001 µM.

Question: How did the IC50 (PI3Kα) turn out when CCCCN(Cc1nc2c(N3CCOCC3)nc(-c3ccc(NC)cc3)nc2n1C)c1ncc(C(=O)NO)cn1 [CLJ-47, N-hydroxy-2-(((2-(4-methylaminophenyl)-9-methyl-6-morpholine-9H-purine-8-yl)methyl)(butyl)amino)pyrimidine-5-formamide] was run?
Answer: The IC50 was over 10 µM.

Question: What about the IC50 (HDAC1; [1]) of the same molecule?
Answer: Its IC50 is 1 to 10 µM.

Question: For CN(Cc1nc2c(N3CCOCC3)nc(-c3cccc(NS(=O)(=O)CCCl)c3)nc2n1C)c1ncc(C(=O)NO)cn1 [CLJ-50, 2-(((2-(3-(2-chloroethylsulfonamide)phenyl)-9-methyl-6-morpholine-9H-purine-8-yl))methyl(methyl)amino)-N-hydroxyl pyrimidine-5-formamide], which IC50 (PI3Kα) is on record?
Answer: Its IC50 is over 10 µM.

Question: What about the IC50 (HDAC1) of the same molecule?
Answer: The IC50 was under 0.1 µM.

Question: What does the source list for CN(Cc1nc2c(N3CCOCC3)nc(-c3ccc(NS(=O)(=O)CCCCl)cc3)nc2n1C)c1ncc(C(=O)NO)cn1 [CLJ-51]?
Answer: IC50 (PI3Kα): > 10 µM; IC50 (HDAC1; [1]): < 0.1 µM

Question: What does the source list for CN(Cc1nc2c(N3CCOCC3)nc(-c3ccc(NC(=O)OC(C)(C)C)cc3)nc2n1C)c1ncc(C(=O)NO)cn1 [CLJ-52]?
Answer: IC50 (PI3Kα): > 10 µM; IC50 (HDAC1; [1]): < 0.1 µM

Question: What does the source list for CN(Cc1nc2c(N3CCOCC3)nc(-c3ccccc3NS(C)(=O)=O)nc2n1C)c1ncc(C(=O)NO)cn1 [CLJ-53]?
Answer: IC50 (PI3Kα): > 10 µM; IC50 (HDAC1; [1]): < 0.1 µM

Question: CN(Cc1nc2c(N3CCOCC3)nc(-c3ccc(S(=O)(=O)NCCCCl)cc3)nc2n1C)c1ncc(C(=O)NO)cn1 [CLJ-58, 2-(((2-(4-(N-(3-chloropropyl)sulfonamide)phenyl)-9-methyl-6-morpholine-9H-purine-8-yl))methyl(methyl)amino)-N-hydroxyl pyrimidine-5-formamide] was tested. Which IC50 (PI3Kα) did it give?
Answer: The IC50 was over 10 µM.

Question: And the IC50 (HDAC1; [1])?
Answer: The IC50 was under 0.1 µM.

Question: What does the source list for CN(Cc1nc2c(N3CCOCC3)nc(-c3cccc(S(=O)(=O)NCO)c3)nc2n1C)c1ncc(C(=O)NO)cn1 [CLJ-59, 2-(((2-(3-(N-(hydroxymethyl)sulfonamide)phenyl)-9-methyl-6-morpholine-9H-purine-8-yl))methyl(methyl)amino)-N-hydroxyl pyrimidine-5-formamide]?
Answer: IC50 (PI3Kα): > 10 µM; IC50 (HDAC1; [1]): < 0.1 µM

Question: Which IC50 (PI3Kα) does the source give for CCc1ccc(-c2nc(N3CCOCC3)c3nc(CN(C)c4ncc(C(=O)NO)cn4)n(C)c3n2)cc1 [CLJ-61, 2-(((2-(4-ethylphenyl)-9-methyl-6-morpholine-9H-purine-8-yl))methyl(methyl)amino)-N-hydroxyl pyrimidine-5-formamide] here?
Answer: Its IC50 is over 10 µM.

Question: What about the IC50 (HDAC1; [1]) of the same molecule?
Answer: Its IC50 is under 0.1 µM.

Question: Which results are given for CCCc1ccc(-c2nc(N3CCOCC3)c3nc(CN(C)c4ncc(C(=O)NO)cn4)n(C)c3n2)cc1 [CLJ-62, 2-(((2-(4-propylphenyl)-9-methyl-6-morpholine-9H-purine-8-yl))methyl(methyl)amino)-N-hydroxyl pyrimidine-5-formamide]?
Answer: IC50 (PI3Kα): > 10 µM; IC50 (HDAC1; [1]): < 0.1 µM

Question: CN(Cc1nc2c(N3CCOCC3)nc(-c3ccc(C(C)(C)C)cc3)nc2n1C)c1ncc(C(=O)NO)cn1 [CLJ-63] was tested. Which IC50 (PI3Kα) did it give?
Answer: The IC50 was over 10 µM.

Question: What about the IC50 (HDAC1; [1]) of the same molecule?
Answer: The IC50 was under 0.1 µM.

Question: Which results are given for CN(Cc1nc2c(N3CCOCC3)nc(-c3cccc(C(N)=O)c3)nc2n1C)c1ncc(C(=O)NO)cn1 [CLJ-64, 2-(((2-(3-carbamoylphenyl)-9-methyl-6-morpholine-9H-purine-8-yl))methyl(methyl)amino)-N-hydroxyl pyrimidine-5-formamide]?
Answer: IC50 (PI3Kα): > 10 µM; IC50 (HDAC1; [1]): < 0.1 µM

Question: Which results are given for CN(Cc1nc2c(N3CCOCC3)nc(-c3cccc(C(=O)NCCO)c3)nc2n1C)c1ncc(C(=O)NO)cn1 [CLJ-65, 2-(((2-(3-(N-(hydroxyethyl)acylamino)phenyl)-9-methyl-6-morpholine-9H-purine-8-yl))methyl(methyl)amino)-N-hydroxyl pyrimidine-5-formamide]?
Answer: IC50 (PI3Kα): > 10 µM; IC50 (HDAC1; [1]): < 0.1 µM

Question: Which IC50 (PI3Kα) does the source give for CN(Cc1nc2c(N3CCOCC3)nc(-c3cccc(C(=O)N4CCN(CO)CC4)c3)nc2n1C)c1ncc(C(=O)NO)cn1 [CLJ-66, 2-(((2-(3-(4-(hydroxymethyl)piperazine-1-carbonyl)phenyl)-9-methyl-6-morpholine-9H-purine-8-yl))methyl(methyl)amino)-N-hydroxyl pyrimidine-5-formamide] here?
Answer: The IC50 was over 10 µM.

Question: And the IC50 (HDAC1; [1])?
Answer: The IC50 was under 0.1 µM.

Question: How did the IC50 (PI3Kα) turn out when CN(Cc1nc2c(N3CCOCC3)nc(-c3ccc(CN4CCOCC4)cc3)nc2n1C)c1ncc(C(=O)NO)cn1 [CLJ-67] was run?
Answer: Its IC50 is over 10 µM.

Question: What about the IC50 (HDAC1; [1]) of the same molecule?
Answer: The IC50 was under 0.001 µM.

Question: What about the IC50 (HDAC1; [2]) of the same molecule?
Answer: Its IC50 is under 0.001 µM.
